Experimental data taken from patent US20250134869A1, “Pyrrolo[2,3-d]pyrimidinyl, Pyrrolo[2,3-b]pyrazinyl and Pyrrolo[2,3-d]pyridinyl Acryla-mides” (Pfizer Inc, priority 2021, published 2025).
Like-named read-outs stand apart in the source and are kept apart here.

Target: JAK3 enzyme (Homo sapiens (Human), UniProt P52333)
Test: JAK Caliper Enzyme Assay at 4 μM or 1 mM ATP
Assay type: biochemical
Procedure: JAK Caliper Enzyme Assay at […] or 1 mM ATP
Test article was solubilized in dimethyl sulfoxide (DMSO) to a stock concentration of 30 mM. An 11-point half log dilution series was created in DMSO with a top concentration of 600 μM. […] The compound plates were diluted 1 to 60 resulting in a top final assay compound concentration of 10 μM and a 2% DMSO concentration.
Test article and assay controls were added to a 384-well plate. Reaction mixtures contained 20 mM HEPES, pH 7.4, 10 mM magnesium chloride, 0.01% bovine serum albumin (BSA), 0.0005% Tween […] or 1 mM ATP and […] peptide substrate. […] The assays were initiated by the addition 1 nM JAK3 enzyme and were incubated at room temperature 75 minutes for JAK3. Enzyme concentrations and incubation times were optimized for each new enzyme preps and were modified slightly over time to ensure 20%-30% phosphorylation. The assays were stopped with a final concentration of 10 mM EDTA, 0.1% Coating Reagent and 100 mM HEPES, pH=7.4. The assay plates were placed on a Caliper Life Science Lab Chip 3000 (LC3000) instrument, and each well was sampled using appropriate separation conditions to measure the unphosphorylated and phosphorylated peptide.

[1] = read-out: JAK3 (4 μM ATP) IC50, 4 μM ATP
[2] = read-out: JAK3 (1 mM ATP) IC50, 1 mM ATP

Sequence of JAK3 enzyme (P52333 whole entry, species assumed): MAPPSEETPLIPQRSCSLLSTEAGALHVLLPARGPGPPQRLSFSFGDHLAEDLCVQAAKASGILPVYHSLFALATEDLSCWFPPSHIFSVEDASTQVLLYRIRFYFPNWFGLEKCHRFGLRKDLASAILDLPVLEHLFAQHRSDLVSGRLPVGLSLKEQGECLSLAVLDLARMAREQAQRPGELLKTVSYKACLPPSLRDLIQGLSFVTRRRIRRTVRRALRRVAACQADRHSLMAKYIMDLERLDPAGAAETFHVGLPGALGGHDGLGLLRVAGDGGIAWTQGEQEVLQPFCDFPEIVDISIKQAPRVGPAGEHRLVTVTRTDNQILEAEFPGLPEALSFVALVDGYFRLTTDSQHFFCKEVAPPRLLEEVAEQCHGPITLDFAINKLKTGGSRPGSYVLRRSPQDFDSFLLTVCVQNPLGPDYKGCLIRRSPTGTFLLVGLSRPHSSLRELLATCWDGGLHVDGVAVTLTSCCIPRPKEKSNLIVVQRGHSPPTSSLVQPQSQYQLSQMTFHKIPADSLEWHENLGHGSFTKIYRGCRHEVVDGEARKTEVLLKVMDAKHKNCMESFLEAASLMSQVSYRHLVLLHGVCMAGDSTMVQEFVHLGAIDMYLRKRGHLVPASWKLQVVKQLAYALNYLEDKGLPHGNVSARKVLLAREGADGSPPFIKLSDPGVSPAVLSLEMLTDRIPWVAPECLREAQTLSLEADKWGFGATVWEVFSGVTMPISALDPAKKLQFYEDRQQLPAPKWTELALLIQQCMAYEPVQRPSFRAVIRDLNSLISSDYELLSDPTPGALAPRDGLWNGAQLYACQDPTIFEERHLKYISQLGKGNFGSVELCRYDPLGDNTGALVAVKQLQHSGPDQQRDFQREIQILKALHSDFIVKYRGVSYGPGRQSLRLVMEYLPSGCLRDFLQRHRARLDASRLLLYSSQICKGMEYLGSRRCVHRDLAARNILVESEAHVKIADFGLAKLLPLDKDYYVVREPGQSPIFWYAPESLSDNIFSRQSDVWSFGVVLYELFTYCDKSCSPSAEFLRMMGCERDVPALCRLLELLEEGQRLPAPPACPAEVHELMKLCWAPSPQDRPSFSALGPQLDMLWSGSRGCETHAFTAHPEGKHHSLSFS

| IC50 [1] | IC50 [2] | Compound |
| --- | --- | --- |
| 29 nM | 2290 nM | C=CC(=O)N1CCC(CNc2cnc3[nH]cc(C(=O)NC(C)C)c3n2)CC1 [Example 193, 2-{[(1-acryloylpiperidin-4-yl)methyl]amino}-N-(propan-2-yl)-5H-pyrrolo[2,3-b]pyrazine-7-carboxamide] |
| 2630 nM | > 10000 nM | CS/C=C/C(=O)N1CCC[C@@H](Nc2ncnc3[nH]ccc23)C1 [Example 98, (2E)-3-(methylsulfanyl)-1-[(3R)-3-(7H-pyrrolo[2,3-d]pyrimidin-4-ylamino)piperidin-1-yl]prop-2-en-1-one] |
| 0.9 nM | 144 nM | C=CC(=O)N1CCN(c2cnc3[nH]cc(C(=O)NC(C)C)c3n2)[C@H](CC)C1 [Example 321, 2-[(2R)-4-acryloyl-2-ethylpiperazin-1-yl]-N-(propan-2-yl)-5H-pyrrolo[2,3-b]pyrazine-7-carboxamide] |
| 1.3 nM | 86.6 nM | C=CC(=O)N1CCC[C@@H](Nc2ncnc3[nH]cc(-c4cncc(F)c4)c23)C1 [Example 23, 1-[(3R)-3-{[5-(5-fluoropyridin-3-yl)-7H-pyrrolo[2,3-d]pyrimidin-4-yl]amino}piperidin-1-yl]prop-2-en-1-one] |
| 0.9 nM | 94.4 nM | C=CC(=O)N1CCC[C@@H](Nc2ncnc3[nH]cc(F)c23)C1 [Example 42, 1-{(3R)-3-[(5-fluoro-7H-pyrrolo[2,3-d]pyrimidin-4-yl)amino]piperidin-1-yl}prop-2-en-1-one] |
| 0.5 nM | 28 nM | C=CC(=O)N1CCC(Nc2cnc3[nH]cc(-c4ccnc(C)c4)c3n2)CC1 [Example 201, 1-(4-{[7-(2-methylpyridin-4-yl)-5H-pyrrolo[2,3-b]pyrazin-2-yl]amino}piperidin-1-yl)prop-2-en-1-one] |
| 7.2 nM |  | C=CC(=O)N1CCC[C@@H](Nc2c(C#N)cnc3[nH]ccc23)C1 [Example 156, 4-{[(3R)-1-Acryloylpiperidin-3-yl]amino}-1H-pyrrolo[2,3-b]pyridine-5-carbonitrile] |
| 0.3 nM | 16 nM | C=CC(=O)N1CCC(Nc2cnc3[nH]cc(-c4cncc(F)c4)c3n2)CC1 [Example 212, 1-(4-{[7-(5-fluoropyridin-3-yl)-5H-pyrrolo[2,3-b]pyrazin-2-yl]amino}piperidin-1-yl)prop-2-en-1-one] |
| 0.8 nM | 65 nM | C=CC(=O)N1CC[C@@H](Nc2cnc3[nH]cc(C(=O)NC(C)C)c3n2)[C@H](OC)C1 [Example 305, 2-{[(3R,4R)-1-acryloyl-3-methoxypiperidin-4-yl]amino}-N-(propan-2-yl)-5H-pyrrolo[2,3-b]pyrazine-7-carboxamide] |
| 0.2 nM | 11.1 nM | C=CC(=O)N1CCC(Nc2cnc3[nH]cc(C(=O)NC4CCC(F)(F)C4)c3n2)CC1 (stereo not drawn) [Example 259, 2-[(1-acryloylpiperidin-4-yl)amino]-N-(3,3-difluorocyclopentyl)-5H-pyrrolo[2,3-b]pyrazine-7-carboxamide] |
| < 0.3 nM | 4.9 nM | C=CC(=O)N1CCC(Nc2cnc3[nH]cc(C(=O)NC4CCCC4(F)F)c3n2)CC1 (stereo not drawn) [Example 234, 2-[(1-acryloylpiperidin-4-yl)amino]-N-(2,2-difluorocyclopentyl)-5H-pyrrolo[2,3-b]pyrazine-7-carboxamide] |
| 6960 nM |  | C/C=C/C(=O)N1CCC[C@@H](Nc2ncnc3[nH]cc(C(=O)NCCO)c23)C1 [Example 148, 4-({(3R)-1-[(2E)-but-2-enoyl]piperidin-3-yl}amino)-N-(2-hydroxyethyl)-7H-pyrrolo[2,3-d]pyrimidine-5-carboxamide] |
| 0.1 nM | 3.4 nM | C#CCNC(=O)c1c[nH]c2ncc(NC3CCN(C(=O)C=C)CC3)nc12 [Example 343, 2-((1-Acryloylpiperidin-4-yl)amino)-N-(prop-2-yn-1-yl)-5H-pyrrolo[2,3-b]pyrazine-7-carboxamide] |
| 238 nM |  | C=CC(=O)N1CCC[C@@H](N(C)c2ncnc3[nH]cc(CCOC)c23)C1 [Example 136, 1-[(3R)-3-{[5-(2-Methoxyethyl)-7H-pyrrolo[2,3-d]pyrimidin-4-yl](methyl)amino]piper-idin-1-yl]prop-2-en-1-one] |
| 1.1 nM | 128 nM | C=CC(=O)N1CCN(c2cnc3[nH]cc(C(=O)NC(C)C)c3n2)[C@H](C)C1 [Example 307, 2-[(2R)-4-acryloyl-2-methylpiperazin-1-yl]-N-(propan-2-yl)-5H-pyrrolo[2,3-b]pyrazine-7-carboxamide] |
| 0.2 nM | 17.5 nM | C=CC(=O)N1CCC(Oc2cnc3[nH]cc(C(=O)NC(C)C)c3n2)CC1 [Example 339, 2-((1-Acryloylpiperidin-4-yl)oxy)-N-isopropyl-5H-pyrrolo[2,3-b]pyrazine-7-carboxamide] |
| 0.6 nM | 52.6 nM | C=CC(=O)N1CCC(Nc2cnc3[nH]cc(C(=O)NCC4(O)CCC4)c3n2)CC1 [Example 231, 2-[(1-acryloylpiperidin-4-yl)amino]-N-[(1-hydroxycyclobutyl)methyl]-5H-pyrrolo[2,3-b]pyrazine-7-carboxamide] |
| 1.9 nM | 235 nM | C=CC(=O)N1CCN(c2cnc3[nH]cc(C(=O)NC(C)C)c3n2)C[C@H]1C(C)C [Example 294, 2-[(3R)-4-acryloyl-3-(propan-2-yl)piperazin-1-yl]-N-(propan-2-yl)-5H-pyrrolo[2,3-b]pyrazine-7-carboxamide] |
| 3490 nM |  | C=CC(=O)NC[C@@]12C[C@@H]1CN(c1cnc3[nH]ccc3n1)C2 [Example 197, N-{[(1R,5S)-3-(5H-pyrrolo[2,3-b]pyrazin-2-yl)-3-azabicyclo[3.1.0]hex-1-yl]methyl}prop-2-enamide] |
| 0.4 nM | 45.4 nM | C=CC(=O)N1CCC(Nc2cnc3[nH]cc(-c4cnc(OC)nc4)c3n2)CC1 [Example 210, 1-(4-{[7-(2-methoxypyrimidin-5-yl)-5H-pyrrolo[2,3-b]pyrazin-2-yl]amino}piperidin-1-yl)prop-2-en-1-one] |
| 0.2 nM | 14.3 nM | C=CC(=O)N1CCC(Nc2cnc3[nH]cc(-c4ccccc4)c3n2)CC1 [Example 209, 1-{4-[(7-phenyl-5H-pyrrolo[2,3-b]pyrazin-2-yl)amino]piperidin-1-yl}prop-2-en-1-one] |
| 1160 nM |  | O=C(/C=C/c1c[nH]cn1)N1CCC[C@@H](Nc2ncnc3[nH]ccc23)C1 [Example 107, (2E)-3-(1H-imidazol-4-yl)-1-[(3R)-3-(7H-pyrrolo[2,3-d]pyrimidin-4-ylamino)piperidin-1-yl]prop-2-en-1-one] |
| 2.9 nM | 149 nM | C=CC(=O)N1CCC[C@@H](Nc2ncnc3[nH]cc(-c4ccccc4O)c23)C1 [Example 25, 1-[(3R)-3-{[5-(2-hydroxyphenyl)-7H-pyrrolo[2,3-d]pyrimidin-4-yl]amino}piperidin-1-yl]prop-2-en-1-one] |
| 5.9 nM | 576 nM | C=CC(=O)N1CCC(Nc2cnc3[nH]cc(-c4cnc(N5CCOCC5)nc4)c3n2)CC1 [Example 208, 1-[4-({7-[2-(morpholin-4-yl)pyrimidin-5-yl]-5H-pyrrolo[2,3-b]pyrazin-2-yl}amino)piperidin-1-yl]prop-2-en-1-one] |

| Compound | IC50 [1] | IC50 [2] |
| --- | --- | --- |
| C=CC(=O)N1CCC(Oc2cnc3[nH]cc(-c4c(C)noc4C)c3n2)CC1 [Example 224, 1-(4-{[7-(3,5-dimethyl-1,2-oxazol-4-yl)-5H-pyrrolo[2,3-b]pyrazin-2-yl]oxy}piperidin-1-yl)prop-2-en-1-one] | 17.6 nM | 1540 nM |
